Measured values taken from the supplement of paper PMC10307832.

Experiments:
Assay in all cases: relative viability (nuclei count vs DMSO), 5 days (fraction); higher = more cells survive
[1] = compound: COc1ccc(-c2ccc3c(N4CCOC[C@@H]4C)nc(N4CCOC[C@@H]4C)nc3n2)cc1CO [AZD8055] + CC(=O)c1c(C)c2cnc(Nc3ccc(N4CCNCC4)cn3)nc2n(C2CCCC2)c1=O [Palbociclib] (partner 0.5 µM)
Procedure, shortened: (§1)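 Lung cancer cell lines, seeded in 1536-well plates, were treated the following day by pin tool with a single drug or with five library-drug doses (not always all listed) in √10 steps on top of a fixed anchor-drug dose. Cells were fixed and nuclei stained in one step after 5 days, and nuclei were counted. Relative viability is the nuclei count for treated wells divided by that for vehicle wells, reported as medians of duplicate plates.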

[2] = compound: COc1ccc(-c2ccc3c(N4CCOC[C@@H]4C)nc(N4CCOC[C@@H]4C)nc3n2)cc1CO [AZD8055] + CC(C)C[C@H](NC(=O)[C@H](Cc1ccccc1)NC(=O)c1cnccn1)B(O)O [Bortezomib] (partner 0.002 µM)
Procedure, shortened: as §1

[3] = compound: COc1ccc(-c2ccc3c(N4CCOC[C@@H]4C)nc(N4CCOC[C@@H]4C)nc3n2)cc1CO [AZD8055] + Cc1nc(Nc2ncc(C(=O)Nc3c(C)cccc3Cl)s2)cc(N2CCN(CCO)CC2)n1 [Dasatinib] (partner 0.075 µM)
Procedure, shortened: as §1

[4] = compound: COc1ccc(-c2ccc3c(N4CCOC[C@@H]4C)nc(N4CCOC[C@@H]4C)nc3n2)cc1CO [AZD8055] + Cc1nc(NC(=O)N2CCC[C@H]2C(N)=O)sc1-c1ccnc(C(C)(C)C(F)(F)F)c1 [Alpelisib] (partner 2 µM)
Procedure, shortened: as §1

Cell Line | relative viability ([1]; first compound 0.01 µM) | relative viability ([1]; first compound 0.03162 µM) | relative viability ([1]; first compound 0.1 µM) | relative viability ([1]; first compound 0.3162 µM) | relative viability ([1]; first compound 1 µM) | relative viability ([2]; first compound 0.01 µM) | relative viability ([2]; first compound 0.03162 µM) | relative viability ([2]; first compound 0.1 µM) | relative viability ([2]; first compound 0.3162 µM) | relative viability ([2]; first compound 1 µM) | relative viability ([3]; first compound 0.01 µM) | relative viability ([3]; first compound 0.03162 µM) | relative viability ([3]; first compound 0.1 µM) | relative viability ([3]; first compound 0.3162 µM) | relative viability ([3]; first compound 1 µM) | relative viability ([4]; first compound 0.01 µM) | relative viability ([4]; first compound 0.03162 µM) | relative viability ([4]; first compound 0.1 µM) | relative viability ([4]; first compound 0.3162 µM) | relative viability ([4]; first compound 1 µM)
NCI-H520 | 0.167 | 0.15 | 0.156 | 0.141 | 0.161 | 0.623 | 0.185 | 0.16 | 0.127 | 0.147 | 0.142 | 0.13 | 0.15 | 0.14 | 0.171 | 0.912 | 0.659 | 0.4 | 0.187 | 0.18
NCI-H661 | 0.37 | 0.368 | 0.303 | 0.291 | 0.362 | 1.09 | 0.619 | 0.758 | 0.396 | 0.295 | 0.845 | 0.867 | 0.633 | 0.368 | 0.305 | 0.801 | 0.411 | 0.399 | 0.397 | 0.275
NCI-H650 | 0.371 | 0.307 | 0.273 | 0.196 | 0.165 | 0.658 | 0.511 | 0.681 | 0.343 | 0.291 | 0.469 | 0.393 | 0.36 | 0.292 | 0.231 | 0.968 | 0.834 | 0.695 | 0.385 | 0.385
NCI-H647 | 0.348 | 0.219 | 0.245 | 0.102 | 0.0993 | 1.71 | 0.748 | 0.541 | 0.266 | 0.17 | 0.179 | 0.136 | 0.132 | 0.0579 | 0.144 | 0.987 | 0.623 | 0.332 | 0.208 | 0.167
201T | 0.354 | 0.314 | 0.278 | 0.251 | 0.303 | 1.12 | 1.1 | 1.11 | 0.881 | 0.811 | 0.537 | 0.564 | 0.501 | 0.398 | 0.416 | 0.987 | 0.911 | 0.775 | 0.611 | 0.569
NCI-H838 | 0.214 | 0.156 | 0.163 | 0.16 | 0.17 | 1.37 | 0.513 | 0.302 | 0.227 | 0.298 | 0.269 | 0.264 | 0.262 | 0.231 | 0.217 | 0.981 | 0.781 | 0.412 | 0.276 | 0.288
SW 1573 | 0.342 | 0.324 | 0.159 | 0.145 | 0.133 | 1.16 | 0.826 | 0.711 | 0.286 | 0.255 | 0.583 | 0.534 | 0.262 | 0.114 | 0.103 | 0.707 | 0.51 | 0.55 | 0.301 | 0.211
PC-14 | 0.698 | 0.589 | 0.255 | 0.108 | 0.12 | 1.13 | 1.05 | 0.737 | 0.272 | 0.246 | 0.319 | 0.309 | 0.199 | 0.0815 | 0.0639 | 0.977 | 0.913 | 0.795 | 0.316 | 0.155
COR-L23 | 0.319 | 0.226 | 0.199 | 0.126 | 0.124 | 1.2 | 0.834 | 0.779 | 0.236 | 0.168 | 0.581 | 0.44 | 0.309 | 0.137 | 0.164 | 0.837 | 0.551 | 0.395 | 0.155 | 0.154
HCC-78 | 0.492 | 0.529 | 0.379 | 0.437 | 0.463 | 0.561 | 0.466 | 0.423 | 0.274 | 0.288 | 0.328 | 0.306 | 0.222 | 0.233 | 0.247 | 0.303 | 0.204 | 0.181 | 0.217 | 0.221
NCI-H2405 | 0.51 | 0.47 | 0.384 | 0.336 | 0.295 | 1 | 0.975 | 0.906 | 0.46 | 0.414 | 0.225 | 0.204 | 0.215 | 0.188 | 0.183 | 0.757 | 0.655 | 0.442 | 0.293 | 0.291
SK-LU-1 | 0.401 | 0.32 | 0.288 | 0.299 | 0.261 | 1.25 | 1.06 | 0.74 | 0.481 | 0.422 | 0.163 | 0.161 | 0.136 | 0.113 | 0.121 | 1.03 | 0.643 | 0.384 | 0.687 | 0.342
EMC-BAC-2 | 0.477 | 0.437 | 0.376 | 0.31 | 0.29 | 1.06 | 1.04 | 0.954 | 0.465 | 0.382 | 0.32 | 0.25 | 0.234 | 0.186 | 0.186 | 0.706 | 0.663 | 0.469 | 0.281 | 0.297
LCLC-97TM1 | 0.205 | 0.164 | 0.129 | 0.0928 | 0.0897 | 0.524 | 0.417 | 0.345 | 0.103 | 0.162 | 0.873 | 0.748 | 0.761 | 0.393 | 0.445 | 0.233 | 0.179 | 0.135 | 0.14 | 0.135
H3255 | 0.3 | 0.303 | 0.314 | 0.288 | 0.292 | 0.777 | 0.901 | 0.525 | 0.371 | 0.259 | 0.364 | 0.429 | 0.3 | 0.323 | 0.306 | 0.683 | 0.657 | 0.499 | 0.275 | 0.322
LXF-289 | 0.621 | 0.581 | 0.578 | 0.3 | 0.23 | 1.06 | 0.982 | 0.951 | 0.682 | 0.756 | 0.191 | 0.222 | 0.192 | 0.118 | 0.109 | 1.02 | 0.923 | 0.742 | 0.567 | 0.515
